Laboratory results published in patent US20200256860A1, “PRINTABLE HYDROGELS FOR BIOMOLECULE IMMOBILIZATION AND STABILIZATION” (priority 2019, published 2020).

Columns and labels:
proteinase K = proteinase K (Parengyodontium album, UniProt P06873); assay: Protease protection studies; assay type: physicochemical; details: 2 hours
Method: 10 μL of a 2 mg/mL proteinase K solution (prepared in 10 mM PBS and 1 mM CaCl2) was pipetted onto the printed enzyme samples both with and without hydrogel encapsulation. The samples were incubated in a closed container for 2 hours at room temperature, after which substrate solutions were pipetted onto the treated samples at the volumes listed in Table 1. Image acquisition and analysis was performed as described for the entrapment studies. The intensity of each sample was measured and presented as a ratio of the corresponding control image (untreated with protease).

[1] = Long-term stability studies (storage at room temperature); assay type: physicochemical; details: hydrogel-entrapped enzyme, at least three months
Method: Printed enzyme samples were stored in a closed, dark container at room temperature for time periods ranging from 7 days up to 3 months. Image acquisition and analysis was performed as described previously for the entrapment and proteinase K degradation studies. The intensity of each sample was measured and presented as a ratio of the corresponding control image (freshly printed).

TEM-1 β-lactamase [2] = molecular target: T1, TEM-1 β-lactamase (Escherichia coli, UniProt P62593); assay type: biochemical; details: promiscuous aggregating inhibitors, printed hydrogel array, starting concentration 100 μM
Method: Images were taken with a Canon DSLR camera (operated in manual focus mode without flash) after 25 min. […] Extracted images were inverted and converted to 8 bit grayscale images. […] Calculation of IC50 values was carried out in OriginPro by plotting the calculated percentage inhibition against the added inhibitor concentration.
Intensity distributions are measured using dynamic light scattering (normalized to maximum intensity).

TEM-1 β-lactamase [3] = molecular target: T1, TEM-1 β-lactamase; assay type: biochemical; details: promiscuous aggregating inhibitors
[4] = Aggregate size and polydispersity by dynamic light scattering; assay type: physicochemical; details: 100 μM solutions, DLS
Method: Following, to assess the capacity of the printed hydrogels to differentiate between specific and non-specific inhibition, the confirmed promiscuous inhibitors rottlerin and BIS IX (both kinase inhibitors) and tetraiodophenolphthalein (TIPT, another established aggregate forming compound) were tested against TEM-1 β-lactamase (an isoform of β-lactamase) both in solution (modeling a conventional microplate assay) and using a printed hydrogel array. […] In this way, the size selectivity of the printed hydrogel layer excludes the promiscuous inhibitors from accessing the enzyme encapsulated in the hydrogel and thus avoids the false positive hits observed in solution assays. […] Intensity distributions are measured using dynamic light scattering (normalized to maximum intensity).

T1 sequence (P62593 24-286 limits assumed): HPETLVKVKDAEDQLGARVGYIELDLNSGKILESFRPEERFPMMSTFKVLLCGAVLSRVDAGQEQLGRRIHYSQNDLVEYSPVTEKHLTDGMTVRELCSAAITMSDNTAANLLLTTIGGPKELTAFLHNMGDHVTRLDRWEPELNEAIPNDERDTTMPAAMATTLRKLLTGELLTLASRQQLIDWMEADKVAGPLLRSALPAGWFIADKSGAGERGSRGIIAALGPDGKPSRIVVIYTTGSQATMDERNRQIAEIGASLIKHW
Chain of proteinase K (P06873 106-384, species assumed): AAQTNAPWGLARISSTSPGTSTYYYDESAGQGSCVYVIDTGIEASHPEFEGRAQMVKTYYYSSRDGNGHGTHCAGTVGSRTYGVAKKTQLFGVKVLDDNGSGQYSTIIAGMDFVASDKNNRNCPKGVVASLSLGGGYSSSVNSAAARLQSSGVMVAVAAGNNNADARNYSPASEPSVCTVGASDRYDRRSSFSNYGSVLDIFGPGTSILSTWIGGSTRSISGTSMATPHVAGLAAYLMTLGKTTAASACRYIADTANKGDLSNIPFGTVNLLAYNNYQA

alkaline phosphatase
Activity retained after proteinase K (proteinase K; enzyme printed directly on nitrocellulose without hydrogel (printed alone)): ~40% | Activity retained after proteinase K (proteinase K; enzyme printed with POH in the absence of gel formation): > 80% | Activity retained after storage [1]: ~100%

Cn1cc(C2=C(c3cn(CCCSC(=N)N)c4ccccc34)C(=O)NC2=O)c2ccccc21 [BIS IX]
Inhibition of β-lactamase in the hydrogel-based assay (TEM-1 β-lactamase [2]): no specific inhibition | Inhibition of β-lactamase in the solution-based assay (TEM-1 β-lactamase [3]): inhibited β-lactamase | Aggregate size [4]: 365 ± 9 nm | Polydispersity [4]: 0.36 ± 0.02

CC(=O)c1c(O)c(C)c(O)c(Cc2c(O)c3c(c(C(=O)/C=C/c4ccccc4)c2O)OC(C)(C)C=C3)c1O [Rottlerin, rottlerin]
Inhibition of β-lactamase in the hydrogel-based assay (TEM-1 β-lactamase [2]): no specific inhibition | Inhibition of β-lactamase in the solution-based assay (TEM-1 β-lactamase [3]): inhibited β-lactamase | Aggregate size [4]: 188 ± 1 nm | Polydispersity [4]: 0.24 ± 0.01
